In paper PMC11048283 (Biology, 2024):
“Also recorded” adds a separate entry of the source. Read-outs that look alike come from different tables or passages of the source.

Key:
S. cinerearia antennae = experiment: Electroantennogram (EAG) recordings; set-up: species or system Semiothisa cinerearia; conditions: 10 μL of 10 μg/μL in paraffin oil, control subtracted, n = 12
Protocol: Electroantennogram recordings were carried out to measure the antennal responses of S. cinerearia to ScinGOBP2 ligands. The antennae of S. cinerearia adults were carefully removed from the base, and the tips were carefully cut off. The prepared antennae were affixed to electrode holders using conductive electrode gel. Subsequently, a 10 μL aliquot of the test compound (10 μg/μL, diluted in paraffin oil) was applied to a strip of filter paper. This strip was then placed into a 1000 µL pipette tip, serving as a cartridge. The test cartridge was connected to a stimulus controller (CS-55; Syntech, Kirchzarten, Germany) that delivered a 0.5 s stimulus every 30 s at a constant flow rate of 10 mL/s. Antennal signals were recorded using an EAG Pro system (Syntech). In all the experiments, antennae were exposed to a solvent control (paraffin oil) at the beginning and end of a series of sample measurements. Test stimuli were presented in a randomized sequence, interspersed between two control puffs. The EAG responses to the test odors were adjusted by subtracting the mean amplitude of the two control signals. EAG responses were measured from a cohort of twelve insects, each with different antennae (n = 12).

ScinGOBP2 = ScinGOBP2 (Semiothisa cinerearia, UniProt A0A889XLB8); experiment: Fluorescence-based competitive binding assay with 1-NPN probe
Sequence of ScinGOBP2 (A0A889XLB8 entry or part of it): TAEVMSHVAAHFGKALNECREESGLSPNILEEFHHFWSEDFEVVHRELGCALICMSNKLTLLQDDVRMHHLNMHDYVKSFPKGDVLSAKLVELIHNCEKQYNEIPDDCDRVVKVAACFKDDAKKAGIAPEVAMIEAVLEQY
Protocol: A total of 27 volatile compounds were selected for a fluorescence-based competitive binding assay based on previously reported information for S. cinerearia host plants. This experiment was performed on a spectrofluorometer F-380 (Tianjin, China) using slits of 10 nm and a light path of 1 cm. The fluorescent probe N-phenyl-1-naphthylamine (1-NPN) was excited at 337 nm, and emissions were recorded between 390 and 530 nm. The affinity of 1-NPN for ScinGOBP2 was measured by titrating a 2 μM solution of the protein with aliquots of 1 mM 1-NPN in methanol to final concentrations of 1–16 μM. The dissociation constants of 1-NPN and the proteins were calculated using the software GraphPad Prism 8.0. Competitive binding was measured via the titration of the protein/1-NPN (both at 2 μM) mixture by adding aliquots of 1 mM of methanol solution of ligand to final concentrations of 2–30 μM. Dissociation constants of the competitors were calculated using the equation KD = IC50/(1 + [1-NPN]/K1-NPN), where IC50 represents the ligand concentration achieving a 50% decrease in 1-NPN’s initial fluorescence intensity, [1-NPN] represents the free concentration of 1-NPN, and K1-NPN represents the dissociation constant of the complex ScinGOBP2/1-NPN.

female S. cinerearia = experiment: Two-choice oviposition preference assay; type: in vivo, Semiothisa cinerearia; conditions: 100 μg in paraffin oil vs solvent control; eggs counted after 48 h
Protocol: The oviposition preference of female S. cinerearia for the ScinGOBP2 ligands was assessed in a screened enclosure (length/width/height = 86 cm:46 cm:48 cm). To ensure mating of all the female moths, newly emerged males and females were cohabitated in a rearing enclosure (30 cm × 30 cm × 30 cm) at a sex ratio of 1:2 for a period of 2 days. Mated females for subsequent experiments were randomly selected from this enclosure. Each screened cage housed five gravid females. For adult nourishment, a small Petri dish containing 10% honey solution was positioned at the cage’s base center. Test compounds (100 μg, diluted in paraffin oil) or the solvent control (paraffin oil) were applied to a cotton ball, which was then affixed to the opposite inner sides of the cage. After 48 h, the number of eggs deposited on the gauze on both the treatment and control sides was counted. The oviposition preference index was determined using the formula (T − C)/(T + C), where T represents the egg count on the treatment side and C represents the count on the control side. Each experiment was replicated eight times.

OachGOBP2 = test system: OachGOBP2; set-up: method as in PMID 36975901; conditions: cited from earlier work
AipsGOBP2 = test system: AipsGOBP2; set-up: method as in PMID 29778539; conditions: cited from earlier work
[1] = competitive displacement of 1-NPN, protein/1-NPN both at 2 μM, ligand 2–30 μM, KD = IC50/(1 + [1-NPN]/K1-NPN), mean ± SE, read-out: KD
[2] = KD, competitive displacement of 1-NPN, protein/1-NPN both at 2 μM, ligand 2–30 μM, KD = IC50/(1 + [1-NPN]/K1-NPN), mean ± SE

CCCCCCCCCC=O [Decanal]
EAG mean response value, males (S. cinerearia antennae; male antennae): 0.063 mV
Kd (ScinGOBP2; [1]): 5.07 ± 0.27 µM
Oviposition preference of mated females (female S. cinerearia): significant preference for laying eggs; also recorded: significant attractant behavioral responses

CC(C)=CCC/C(C)=C/CC/C(C)=C/CO [farnesol]
binding affinity for OachGOBP2 (OachGOBP2): high binding affinity

CCCCCCCC/C=C\CCCCCCCC(=O)O [oleic acid]
binding affinity for AipsGOBP2 (AipsGOBP2): high binding affinity

C=C1CCC2CC1C2(C)C (stereo not drawn) [β-Pinene]
Kd (ScinGOBP2; [2]): 13.2 ± 0.19 µM
Oviposition preference of mated females (female S. cinerearia): deter S. cinerearia from ovipositing; also recorded: marked repellent behavioral responses

CC1=CC[C@H](C(C)C)C=C1 [α-phellandrene]
binding affinity for OachGOBP2 (OachGOBP2): high binding affinity

CC/C=C\CCOC(=O)CCCC [cis-3-Hexenyl n-valerate]
Kd (ScinGOBP2; [1]): 6.55 ± 0.18 µM
Oviposition preference of mated females (female S. cinerearia): significant preference for laying eggs; also recorded: significant attractant behavioral responses

CC1=CCC2CC1C2(C)C (stereo not drawn) [α-Pinene]
Kd (ScinGOBP2; [2]): 9.41 ± 0.28 µM
Oviposition preference of mated females (female S. cinerearia): significant preference for laying eggs; also recorded: significant attractant behavioral responses

C=C(C)[C@H]1CC=C(C)CC1 [Dipentene]
EAG mean response value, females (S. cinerearia antennae; female antennae): 0.086 mV
Kd (ScinGOBP2; [2]): 14.9 ± 0.77 µM
Oviposition preference of mated females (female S. cinerearia): deter S. cinerearia from ovipositing; also recorded: marked repellent behavioral responses

CC(=O)CC/C=C(\C)CCC=C(C)C [Geranyl acetone]
Kd (ScinGOBP2; [1]): 2.21 ± 0.17 µM
Oviposition preference of mated females (female S. cinerearia): deter S. cinerearia from ovipositing; also recorded: marked repellent behavioral responses

c1ccc(Nc2cccc3ccccc23)cc1 [1-NPN, N-phenyl-1-naphthylamine, reference compound]
Kd (ScinGOBP2; dissociation constant (KD) for the ScinGOBP2/1-NPN complexes, direct titration of 2 μM protein with 1-NPN 1–16 μM): 2.27 µM

CCCCOC(=O)c1ccccc1C(=O)OCCCC [dibutyl phthalate]
binding affinity for AipsGOBP2 (AipsGOBP2): high binding affinity

C=CCCCCCCC [1-Nonene]
Kd (ScinGOBP2; [2]): 12.2 ± 0.44 µM
Kd (ScinGOBP2; competitive displacement of 1-NPN, protein/1-NPN both at 2 μM, ligand 2–30 μM, KD = IC50/(1 + [1-NPN]/K1-NPN), mean ± SE): < 15 µM
Oviposition preference of mated females (female S. cinerearia): deter S. cinerearia from ovipositing; also recorded: marked repellent behavioral responses

CC/C=C\CCOC(=O)CCC [cis-3-Hexenyl butyrate]
Kd (ScinGOBP2; [1]): 14.17 ± 0.04 µM
Oviposition preference of mated females (female S. cinerearia): significant preference for laying eggs; also recorded: significant attractant behavioral responses

C=C1CC/C=C(\C)CC[C@@H]2[C@@H]1CC2(C)C [β-caryophyllene]
binding affinity for AipsGOBP2 (AipsGOBP2): high binding affinity

CC/C=C\CCO [cis-3-hexen-1-ol]
binding affinity for AipsGOBP2 (AipsGOBP2): high binding affinity
